Test results from US12052991B2, “Substituted pyridinyloxybenzenes and salts thereof and use thereof as herbicidal agents” (Bayer Aktiengesellschaft, priority 2018, dated 2024).

Test system: Abutilon theophrasti (ABUTH)
Experiment: Herbicidal pre-emergence action, test C (Table C5)
Type: in vivo
Conditions: dosage 320 g/ha; visual scoring after about 3 weeks; 100% = plants have died, 0% = like control plants
Summary of the method: (§1)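 In this test, soil-covered weed seeds in sandy loam received a surface application of compound at 1280 or 320 g/ha. Effects were rated visually as percentages compared with untreated controls roughly 3 weeks later.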

SMILES | Pre-emergence action against Abutilon theophrasti (ABUTH) [%]
Cc1cccc(Oc2ccc(Cl)cn2)c1-c1cc(C(F)F)no1 [Example 1-18, 5-[2-[(5-Chloro-2-pyridyl)oxy]-6-methylphenyl]-3-(difluoromethyl)isoxazole] | 100

Same assay, conditions: dosage 1280 g/ha; visual scoring after about 3 weeks; 100% = plants have died, 0% = like control plants

SMILES | Pre-emergence action against Abutilon theophrasti (ABUTH) [%]
Cc1cccc(Oc2ccc(Cl)cn2)c1-c1cc(C(F)F)no1 [Example 1-18, 5-[2-[(5-Chloro-2-pyridyl)oxy]-6-methylphenyl]-3-(difluoromethyl)isoxazole] | 100

Test system: Stellaria media (STEME)
Experiment: Herbicidal pre-emergence action, test C (Table C8)
Type: in vivo
Conditions: dosage 320 g/ha; visual scoring after about 3 weeks; 100% = plants have died, 0% = like control plants
Summary of the method: as §1

SMILES | Pre-emergence action against Stellaria media (STEME) [%]
Cc1cccc(Oc2ccc(Cl)cn2)c1-c1cc(C(F)F)no1 [Example 1-18, 5-[2-[(5-Chloro-2-pyridyl)oxy]-6-methylphenyl]-3-(difluoromethyl)isoxazole] | 100

Same assay, conditions: dosage 1280 g/ha; visual scoring after about 3 weeks; 100% = plants have died, 0% = like control plants

SMILES | Pre-emergence action against Stellaria media (STEME) [%]
Cc1cccc(Oc2ccc(Cl)cn2)c1-c1cc(C(F)F)no1 [Example 1-18, 5-[2-[(5-Chloro-2-pyridyl)oxy]-6-methylphenyl]-3-(difluoromethyl)isoxazole] | 100

Test system: Amaranthus retroflexus (AMARE)
Experiment: Herbicidal post-emergence action (Table B6)
Type: in vivo
Conditions: dosage 320 g/ha; visual rating about 3 weeks after treatment; 100% = plants have died, 0% = like control plants
Summary of the method: (§2)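 Visual percent activity relative to untreated controls (100% = plants dead, 0% = like controls) was scored about 3 weeks after treatment. Plants had been sprayed at the one-leaf stage with formulated compound at 1280 or 320 g/ha in 600 L/ha water containing 0.5% additive.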

SMILES | Post-emergence action against Amaranthus retroflexus (AMARE) [%]
Cc1cccc(Oc2ccc(Cl)cn2)c1-c1cc(C(F)F)no1 [Example 1-18, 5-[2-[(5-Chloro-2-pyridyl)oxy]-6-methylphenyl]-3-(difluoromethyl)isoxazole] | 100

Same assay, conditions: dosage 1280 g/ha; visual rating about 3 weeks after treatment; 100% = plants have died, 0% = like control plants

SMILES | Post-emergence action against Amaranthus retroflexus (AMARE) [%]
Cc1cccc(Oc2ccc(Cl)cn2)c1-c1cc(C(F)F)no1 [Example 1-18, 5-[2-[(5-Chloro-2-pyridyl)oxy]-6-methylphenyl]-3-(difluoromethyl)isoxazole] | 100

Test system: Echinochloa crus-galli (ECHCG)
Experiment: Herbicidal post-emergence action (Table B1)
Type: in vivo
Conditions: 320 g/ha; rated visually after about 3 weeks; 100% = plants have died, 0% = like control plants
Summary of the method: as §2

SMILES | Post-emergence action against Echinochloa crus-galli (ECHCG) [%]
Cc1cccc(Oc2ccc(Cl)cn2)c1-c1cc(C(F)F)no1 [Example 1-18, 5-[2-[(5-Chloro-2-pyridyl)oxy]-6-methylphenyl]-3-(difluoromethyl)isoxazole] | 100

Same assay, conditions: 1280 g/ha; rated visually after about 3 weeks; 100% = plants have died, 0% = like control plants

SMILES | Post-emergence action against Echinochloa crus-galli (ECHCG) [%]
Cc1cccc(Oc2ccc(Cl)cn2)c1-c1cc(C(F)F)no1 [Example 1-18, 5-[2-[(5-Chloro-2-pyridyl)oxy]-6-methylphenyl]-3-(difluoromethyl)isoxazole] | 100

Test system: harmful plants ABUTH, AMARE, ECHCG, LOLRI, MATIN, POAAN, SETVI, STEME, ALOMY, DIGSA, KCHSC and VERPE
Experiment: Herbicidal post-emergence action, summary of Tables B1-B12
Type: in vivo
Conditions: application rate of 1280 or 320 g of active ingredient per hectare; summary in words
Summary of the method: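 Greenhouse weeds in sandy loam treated post-emergence at the one-leaf stage, 2–3 weeks after sowing, with WP or EC formulations sprayed with 0.5% additive at 600 L/ha water, 1280 or 320 g/ha. Damage rated visually after about 3 weeks versus untreated controls (0% = like control, 100% = dead).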

SMILES | herbicidal activity against the harmful plants of Tables B1-B12 in post-emergence treatment
Cc1cccc(Oc2ccc(Cl)cn2)c1-c1cc(C(F)F)no1 [Example 1-18, 5-[2-[(5-Chloro-2-pyridyl)oxy]-6-methylphenyl]-3-(difluoromethyl)isoxazole] | very good herbicidal activity

Test system: Abutilon theophrasti (ABUTH)
Experiment: Herbicidal post-emergence action (Table B5)
Type: in vivo
Conditions: 320 g/ha; rated visually after about 3 weeks; 100% = plants have died, 0% = like control plants
Summary of the method: as §2

SMILES | Post-emergence action against Abutilon theophrasti (ABUTH) [%]
Cc1cccc(Oc2ccc(Cl)cn2)c1-c1cc(C(F)F)no1 [Example 1-18, 5-[2-[(5-Chloro-2-pyridyl)oxy]-6-methylphenyl]-3-(difluoromethyl)isoxazole] | 100

Same assay, conditions: 1280 g/ha; rated visually after about 3 weeks; 100% = plants have died, 0% = like control plants

SMILES | Post-emergence action against Abutilon theophrasti (ABUTH) [%]
Cc1cccc(Oc2ccc(Cl)cn2)c1-c1cc(C(F)F)no1 [Example 1-18, 5-[2-[(5-Chloro-2-pyridyl)oxy]-6-methylphenyl]-3-(difluoromethyl)isoxazole] | 100

Test system: Stellaria media (STEME)
Experiment: Herbicidal post-emergence action (Table B8)
Type: in vivo
Conditions: dosage 320 g/ha; visual rating about 3 weeks after treatment; 100% = plants have died, 0% = like control plants
Summary of the method: as §2

SMILES | Post-emergence action against Stellaria media (STEME) [%]
Cc1cccc(Oc2ccc(Cl)cn2)c1-c1cc(C(F)F)no1 [Example 1-18, 5-[2-[(5-Chloro-2-pyridyl)oxy]-6-methylphenyl]-3-(difluoromethyl)isoxazole] | 100

Same assay, conditions: dosage 1280 g/ha; visual rating about 3 weeks after treatment; 100% = plants have died, 0% = like control plants

SMILES | Post-emergence action against Stellaria media (STEME) [%]
Cc1cccc(Oc2ccc(Cl)cn2)c1-c1cc(C(F)F)no1 [Example 1-18, 5-[2-[(5-Chloro-2-pyridyl)oxy]-6-methylphenyl]-3-(difluoromethyl)isoxazole] | 100

Test system: Poa annua (POAAN)
Experiment: Herbicidal pre-emergence action, test C (Table C3)
Type: in vivo
Conditions: dosage 320 g/ha; visual scoring after about 3 weeks; 100% = plants have died, 0% = like control plants
Summary of the method: as §1

SMILES | Pre-emergence action against Poa annua (POAAN) [%]
Cc1cccc(Oc2ccc(Cl)cn2)c1-c1cc(C(F)F)no1 [Example 1-18, 5-[2-[(5-Chloro-2-pyridyl)oxy]-6-methylphenyl]-3-(difluoromethyl)isoxazole] | 90

Same assay, conditions: dosage 1280 g/ha; visual scoring after about 3 weeks; 100% = plants have died, 0% = like control plants

SMILES | Pre-emergence action against Poa annua (POAAN) [%]
Cc1cccc(Oc2ccc(Cl)cn2)c1-c1cc(C(F)F)no1 [Example 1-18, 5-[2-[(5-Chloro-2-pyridyl)oxy]-6-methylphenyl]-3-(difluoromethyl)isoxazole] | 100

Test system: Poa annua (POAAN)
Experiment: Herbicidal post-emergence action (Table B3)
Type: in vivo
Conditions: 320 g/ha; rated visually after about 3 weeks; 100% = plants have died, 0% = like control plants
Summary of the method: as §2

SMILES | Post-emergence action against Poa annua (POAAN) [%]
Cc1cccc(Oc2ccc(Cl)cn2)c1-c1cc(C(F)F)no1 [Example 1-18, 5-[2-[(5-Chloro-2-pyridyl)oxy]-6-methylphenyl]-3-(difluoromethyl)isoxazole] | 100

Same assay, conditions: 1280 g/ha; rated visually after about 3 weeks; 100% = plants have died, 0% = like control plants

SMILES | Post-emergence action against Poa annua (POAAN) [%]
Cc1cccc(Oc2ccc(Cl)cn2)c1-c1cc(C(F)F)no1 [Example 1-18, 5-[2-[(5-Chloro-2-pyridyl)oxy]-6-methylphenyl]-3-(difluoromethyl)isoxazole] | 100

Test system: harmful plants ABUTH, AMARE, ECHCG, LOLRI, MATIN, POAAN, SETVI, STEME, ALOMY, DIGSA, KCHSC and VERPE
Experiment: Herbicidal pre-emergence action (test C), summary of Tables C1-C12
Type: in vivo
Conditions: application rate of 1280 or 320 g of active ingredient per hectare; summary in words
Summary of the method: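 Pre-emergence pot test in sandy loam: WP or EC formulations were sprayed onto the covering soil with 0.5% additive at 600 L/ha water, at 1280 or 320 g/ha. Plants were kept in the greenhouse, and activity was rated visually about 3 weeks later as % versus untreated controls (100% = dead).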

SMILES | herbicidal activity against the harmful plants of Tables C1-C12 in pre-emergence treatment
Cc1cccc(Oc2ccc(Cl)cn2)c1-c1cc(C(F)F)no1 [Example 1-18, 5-[2-[(5-Chloro-2-pyridyl)oxy]-6-methylphenyl]-3-(difluoromethyl)isoxazole] | very good herbicidal activity

Test system: Lolium rigidum (LOLRI)
Experiment: Herbicidal pre-emergence action, test C (Table C2)
Type: in vivo
Conditions: dosage 1280 g/ha; visual scoring after about 3 weeks; 100% = plants have died, 0% = like control plants
Summary of the method: as §1

SMILES | Pre-emergence action against Lolium rigidum (LOLRI) [%]
Cc1cccc(Oc2ccc(Cl)cn2)c1-c1cc(C(F)F)no1 [Example 1-18, 5-[2-[(5-Chloro-2-pyridyl)oxy]-6-methylphenyl]-3-(difluoromethyl)isoxazole] | 90

Test system: Amaranthus retroflexus (AMARE)
Experiment: Herbicidal pre-emergence action, test C (Table C6)
Type: in vivo
Conditions: dosage 320 g/ha; visual scoring after about 3 weeks; 100% = plants have died, 0% = like control plants
Summary of the method: as §1

SMILES | Pre-emergence action against Amaranthus retroflexus (AMARE) [%]
Cc1cccc(Oc2ccc(Cl)cn2)c1-c1cc(C(F)F)no1 [Example 1-18, 5-[2-[(5-Chloro-2-pyridyl)oxy]-6-methylphenyl]-3-(difluoromethyl)isoxazole] | 100

Same assay, conditions: dosage 1280 g/ha; visual scoring after about 3 weeks; 100% = plants have died, 0% = like control plants

SMILES | Pre-emergence action against Amaranthus retroflexus (AMARE) [%]
Cc1cccc(Oc2ccc(Cl)cn2)c1-c1cc(C(F)F)no1 [Example 1-18, 5-[2-[(5-Chloro-2-pyridyl)oxy]-6-methylphenyl]-3-(difluoromethyl)isoxazole] | 100

Test system: Lolium rigidum (LOLRI)
Experiment: Herbicidal post-emergence action (Table B2)
Type: in vivo
Conditions: 320 g/ha; rated visually after about 3 weeks; 100% = plants have died, 0% = like control plants
Summary of the method: as §2

SMILES | Post-emergence action against Lolium rigidum (LOLRI) [%]
Cc1cccc(Oc2ccc(Cl)cn2)c1-c1cc(C(F)F)no1 [Example 1-18, 5-[2-[(5-Chloro-2-pyridyl)oxy]-6-methylphenyl]-3-(difluoromethyl)isoxazole] | 90

Same assay, conditions: 1280 g/ha; rated visually after about 3 weeks; 100% = plants have died, 0% = like control plants

SMILES | Post-emergence action against Lolium rigidum (LOLRI) [%]
Cc1cccc(Oc2ccc(Cl)cn2)c1-c1cc(C(F)F)no1 [Example 1-18, 5-[2-[(5-Chloro-2-pyridyl)oxy]-6-methylphenyl]-3-(difluoromethyl)isoxazole] | 100

Test system: Echinochloa crus-galli (ECHCG)
Experiment: Herbicidal pre-emergence action, test C (Table C1)
Type: in vivo
Conditions: dosage 320 g/ha; visual scoring after about 3 weeks; 100% = plants have died, 0% = like control plants
Summary of the method: as §1

SMILES | Pre-emergence action against Echinochloa crus-galli (ECHCG) [%]
Cc1cccc(Oc2ccc(Cl)cn2)c1-c1cc(C(F)F)no1 [Example 1-18, 5-[2-[(5-Chloro-2-pyridyl)oxy]-6-methylphenyl]-3-(difluoromethyl)isoxazole] | 90

Same assay, conditions: dosage 1280 g/ha; visual scoring after about 3 weeks; 100% = plants have died, 0% = like control plants

SMILES | Pre-emergence action against Echinochloa crus-galli (ECHCG) [%]
Cc1cccc(Oc2ccc(Cl)cn2)c1-c1cc(C(F)F)no1 [Example 1-18, 5-[2-[(5-Chloro-2-pyridyl)oxy]-6-methylphenyl]-3-(difluoromethyl)isoxazole] | 100

Test system: Setaria viridis (SETVI)
Experiment: Herbicidal pre-emergence action, test C (Table C4)
Type: in vivo
Conditions: dosage 320 g/ha; visual scoring after about 3 weeks; 100% = plants have died, 0% = like control plants
Summary of the method: as §1

SMILES | Pre-emergence action against Setaria viridis (SETVI) [%]
Cc1cccc(Oc2ccc(Cl)cn2)c1-c1cc(C(F)F)no1 [Example 1-18, 5-[2-[(5-Chloro-2-pyridyl)oxy]-6-methylphenyl]-3-(difluoromethyl)isoxazole] | 100

Same assay, conditions: dosage 1280 g/ha; visual scoring after about 3 weeks; 100% = plants have died, 0% = like control plants

SMILES | Pre-emergence action against Setaria viridis (SETVI) [%]
Cc1cccc(Oc2ccc(Cl)cn2)c1-c1cc(C(F)F)no1 [Example 1-18, 5-[2-[(5-Chloro-2-pyridyl)oxy]-6-methylphenyl]-3-(difluoromethyl)isoxazole] | 100

Test system: Setaria viridis (SETVI)
Experiment: Herbicidal post-emergence action (Table B4)
Type: in vivo
Conditions: 320 g/ha; rated visually after about 3 weeks; 100% = plants have died, 0% = like control plants
Summary of the method: as §2

SMILES | Post-emergence action against Setaria viridis (SETVI) [%]
Cc1cccc(Oc2ccc(Cl)cn2)c1-c1cc(C(F)F)no1 [Example 1-18, 5-[2-[(5-Chloro-2-pyridyl)oxy]-6-methylphenyl]-3-(difluoromethyl)isoxazole] | 100

Same assay, conditions: 1280 g/ha; rated visually after about 3 weeks; 100% = plants have died, 0% = like control plants

SMILES | Post-emergence action against Setaria viridis (SETVI) [%]
Cc1cccc(Oc2ccc(Cl)cn2)c1-c1cc(C(F)F)no1 [Example 1-18, 5-[2-[(5-Chloro-2-pyridyl)oxy]-6-methylphenyl]-3-(difluoromethyl)isoxazole] | 100
